Source: paper PMC4538832, “Structures of the T. brucei kRNA editing factor MRB1590 reveal unique RNA-binding pore motif contained within an ABC-ATPase fold” (Nucleic Acids Research, 2015)

Biological target: T1, MRB1590(10–668) (Trypanosoma brucei, UniProt Q57ZF2)
T1 construct: gene Tb03.30P12.70; residues 10-668 (full length 668, 72 kDa); homodimer, ATP site formed by both subunits
T1 sequence (Q57ZF2 10-668): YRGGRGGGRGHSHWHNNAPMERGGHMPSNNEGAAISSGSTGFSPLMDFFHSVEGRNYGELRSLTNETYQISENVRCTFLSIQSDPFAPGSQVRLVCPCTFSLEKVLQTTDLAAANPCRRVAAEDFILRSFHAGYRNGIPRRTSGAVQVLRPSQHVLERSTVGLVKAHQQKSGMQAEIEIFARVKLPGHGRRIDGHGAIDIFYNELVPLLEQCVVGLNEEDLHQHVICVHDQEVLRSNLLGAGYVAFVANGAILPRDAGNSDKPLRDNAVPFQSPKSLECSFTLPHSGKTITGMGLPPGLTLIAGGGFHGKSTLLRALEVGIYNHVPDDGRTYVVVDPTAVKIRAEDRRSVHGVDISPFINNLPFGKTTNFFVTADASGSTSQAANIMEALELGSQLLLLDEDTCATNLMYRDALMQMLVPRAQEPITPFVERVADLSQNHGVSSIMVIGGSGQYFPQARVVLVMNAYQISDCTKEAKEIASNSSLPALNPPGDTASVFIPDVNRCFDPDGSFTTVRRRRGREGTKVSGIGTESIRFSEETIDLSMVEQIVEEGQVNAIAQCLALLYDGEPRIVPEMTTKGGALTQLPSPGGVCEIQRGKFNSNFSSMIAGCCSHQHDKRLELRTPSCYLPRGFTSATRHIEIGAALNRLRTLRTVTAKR
Test: ITC
Assay type: binding

| SMILES | Kd [nM] |
| --- | --- |
| Nc1ncnc2c1ncn2[C@@H]1O[C@H](COP(=O)(O)OP(=O)(O)O)[C@@H](O)[C@H]1O [ADP] | 885 ± 49 |
| Nc1ncnc2c1ncn2[C@@H]1O[C@H](COP(=O)(O)OP(=O)(O)NP(=O)(O)O)[C@@H](O)[C@H]1O [AMP-PNP] | 1270 ± 210 |
